In paper PMC12284294 (iScience, 2025):
Where two headings read alike, the source gives them in different places. Ends that are not written are not given here.

Legend:
FPR1, FPR2, FPR3, PMN = format: cell-based, human
FPR1 = target: T1, FPR1 (Homo sapiens, UniProt P21462); format: cell-based
T1 construct: expressed in transfected cells; host or cells: HEK293T
T1 sequence (P21462 1-350): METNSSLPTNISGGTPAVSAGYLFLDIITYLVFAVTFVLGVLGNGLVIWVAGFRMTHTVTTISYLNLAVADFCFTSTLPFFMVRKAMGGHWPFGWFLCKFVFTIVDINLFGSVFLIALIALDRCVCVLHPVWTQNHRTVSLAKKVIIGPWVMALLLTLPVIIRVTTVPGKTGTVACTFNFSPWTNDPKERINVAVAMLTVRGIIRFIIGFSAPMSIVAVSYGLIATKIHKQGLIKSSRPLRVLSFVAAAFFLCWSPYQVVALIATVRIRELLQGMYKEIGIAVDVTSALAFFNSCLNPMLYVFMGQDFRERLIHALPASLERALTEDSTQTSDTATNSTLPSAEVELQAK

[1] = tested on: human polymorphonuclear granulocytes (PMN; neutrophils); format: cell-based
[2] = target: T2, Formyl peptide receptor 1 (human, UniProt P21462 1-350)
T2 chain: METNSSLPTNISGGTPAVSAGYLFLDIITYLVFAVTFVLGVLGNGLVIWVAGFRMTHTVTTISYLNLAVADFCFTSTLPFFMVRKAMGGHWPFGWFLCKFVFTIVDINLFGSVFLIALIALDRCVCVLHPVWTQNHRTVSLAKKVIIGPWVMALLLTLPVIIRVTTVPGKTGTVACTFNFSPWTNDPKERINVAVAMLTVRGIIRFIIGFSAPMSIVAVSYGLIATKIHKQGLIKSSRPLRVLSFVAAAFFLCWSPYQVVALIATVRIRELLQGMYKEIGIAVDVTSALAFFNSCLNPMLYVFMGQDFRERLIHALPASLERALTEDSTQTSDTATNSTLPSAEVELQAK

[3] = target: T3, Formyl peptide receptor 3 (human, UniProt P25089 1-353)
T3 chain: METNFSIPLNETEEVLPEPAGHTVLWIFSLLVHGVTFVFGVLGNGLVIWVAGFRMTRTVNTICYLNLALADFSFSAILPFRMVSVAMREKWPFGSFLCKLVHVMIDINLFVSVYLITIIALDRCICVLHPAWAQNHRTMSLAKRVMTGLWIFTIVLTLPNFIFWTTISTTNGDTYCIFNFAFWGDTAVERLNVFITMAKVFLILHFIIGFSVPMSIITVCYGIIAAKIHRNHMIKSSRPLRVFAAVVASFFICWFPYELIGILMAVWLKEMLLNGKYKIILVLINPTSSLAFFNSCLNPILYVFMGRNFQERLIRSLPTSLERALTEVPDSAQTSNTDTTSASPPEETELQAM

[4] = target: T4, Formyl peptide receptor 2 (human, UniProt P25090 1-351)
T4 chain: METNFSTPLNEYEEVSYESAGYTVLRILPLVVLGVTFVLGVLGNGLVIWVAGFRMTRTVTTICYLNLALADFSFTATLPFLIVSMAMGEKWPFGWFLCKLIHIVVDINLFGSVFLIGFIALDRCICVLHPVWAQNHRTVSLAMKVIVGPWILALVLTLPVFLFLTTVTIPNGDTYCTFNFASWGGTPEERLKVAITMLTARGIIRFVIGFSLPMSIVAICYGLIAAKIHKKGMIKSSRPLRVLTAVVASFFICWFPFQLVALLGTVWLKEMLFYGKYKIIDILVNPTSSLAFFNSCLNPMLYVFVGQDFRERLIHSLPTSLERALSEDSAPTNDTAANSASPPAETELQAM

[5] = target: T5, Formyl peptide receptor 1 (human, UniProt P21462 1-350); conditions: one partner purified
T5 sequence (looked up): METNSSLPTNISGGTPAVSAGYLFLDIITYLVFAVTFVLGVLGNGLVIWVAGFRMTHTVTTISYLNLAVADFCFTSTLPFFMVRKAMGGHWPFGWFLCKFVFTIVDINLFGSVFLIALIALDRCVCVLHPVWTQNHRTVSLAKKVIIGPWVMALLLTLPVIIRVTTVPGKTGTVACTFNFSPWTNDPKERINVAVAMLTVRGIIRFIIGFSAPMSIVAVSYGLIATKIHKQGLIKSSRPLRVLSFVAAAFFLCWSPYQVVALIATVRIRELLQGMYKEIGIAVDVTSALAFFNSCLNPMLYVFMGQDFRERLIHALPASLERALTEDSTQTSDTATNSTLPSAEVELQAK

[6] = target: T6, Formyl peptide receptor 2 (human, UniProt P25090 1-351); conditions: one partner purified
T6 sequence (looked up): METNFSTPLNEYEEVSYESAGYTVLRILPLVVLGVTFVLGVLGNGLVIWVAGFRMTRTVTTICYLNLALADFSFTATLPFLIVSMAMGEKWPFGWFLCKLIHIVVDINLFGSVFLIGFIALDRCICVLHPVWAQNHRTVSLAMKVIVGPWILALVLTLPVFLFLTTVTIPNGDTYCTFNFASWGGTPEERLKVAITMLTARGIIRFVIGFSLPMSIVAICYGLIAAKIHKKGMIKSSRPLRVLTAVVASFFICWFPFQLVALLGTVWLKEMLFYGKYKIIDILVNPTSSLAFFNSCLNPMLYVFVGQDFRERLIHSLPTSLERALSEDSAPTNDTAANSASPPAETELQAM

[7] = target: T7, Formyl peptide receptor 3 (human, UniProt P25089 1-353); conditions: one partner purified
T7 sequence (looked up): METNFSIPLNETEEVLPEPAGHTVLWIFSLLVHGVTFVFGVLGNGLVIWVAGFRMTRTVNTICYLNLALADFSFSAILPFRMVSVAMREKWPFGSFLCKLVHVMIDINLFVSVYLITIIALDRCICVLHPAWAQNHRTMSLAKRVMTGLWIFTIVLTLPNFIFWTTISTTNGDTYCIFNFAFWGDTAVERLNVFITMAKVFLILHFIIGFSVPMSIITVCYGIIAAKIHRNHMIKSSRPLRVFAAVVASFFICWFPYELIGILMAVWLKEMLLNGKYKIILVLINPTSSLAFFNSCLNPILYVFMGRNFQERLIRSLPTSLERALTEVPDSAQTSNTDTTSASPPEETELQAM

[8] = target: T2, Formyl peptide receptor 1
[9] = target: T3, Formyl peptide receptor 3
[10] = target: T4, Formyl peptide receptor 2
[11] = […], it matches an identified peptide or IgG epitope of COVID-19 patients
[12] = SARS-CoV-2 omicron B.1.1.529 spike pool peptides, 10 µM, PMN, n=6

Molecule: DYSVLYNLAPFFTFKCYGV
- Match with activator (region): Receptor (FPR1, FPR2, FPR3, PMN; [11]): PMN

Molecule: VLPFNDGVYFASIEK
- non-activators of FPR1 and PMNs: FPR1 (FPR1): non-activators of FPR1 and PMNs
- non-activators of FPR1 and PMNs: PMNs [1, 12]: non-activators of FPR1 and PMNs

Molecule: QVKQIYKTPPIKYFG
- significant PMN activators (group of the spike peptide pool screening) [1, 12]: significant PMN activators
- Match with activator (region): Receptor (FPR1, FPR2, FPR3, PMN): PMN+ FPR2
- Match with activator (region): Receptor (FPR1, FPR2, FPR3, PMN; [11]): PMN + FPR2

Molecule: VNHNAQALNTLVKQLSSKFGAISSVLNDIFS
- Match with activator (region): Receptor (FPR1, FPR2, FPR3, PMN): FPR3

Molecule: LLLQYGSFCTQLKRALTGI
- Match with activator (region): Receptor (FPR1, FPR2, FPR3, PMN): FPR3

Molecule: WNSNKLDSKVSGNYN
- non-activators of FPR1 and PMNs: FPR1 (FPR1): non-activators of FPR1 and PMNs
- non-activators of FPR1 and PMNs: PMNs [1, 12]: non-activators of FPR1 and PMNs

Molecule: NFNFNGLKGTGVLTE
- non-activators of FPR1 and PMNs: FPR1 (FPR1): non-activators of FPR1 and PMNs
- non-activators of FPR1 and PMNs: PMNs [1, 12]: non-activators of FPR1 and PMNs
- Match with activator (region): Receptor (FPR1, FPR2, FPR3, PMN; [11]): FPR3

Molecule: CVIAWNSNKLDSKVS
- non-activators of FPR1 and PMNs: FPR1 (FPR1): non-activators of FPR1 and PMNs
- non-activators of FPR1 and PMNs: PMNs [1, 12]: non-activators of FPR1 and PMNs

Molecule: PGTNTSNQVAVLYQG
- non-activators of FPR1 and PMNs: FPR1 (FPR1): non-activators of FPR1 and PMNs
- non-activators of FPR1 and PMNs: PMNs [1, 12]: non-activators of FPR1 and PMNs

Molecule: IFSRLDKVEAEVQID
- non-activators of FPR1 and PMNs: FPR1 (FPR1): non-activators of FPR1 and PMNs
- non-activators of FPR1 and PMNs: PMNs [1]: non-activators of FPR1 and PMNs

Molecule: FCNDPFLDHKNNKSW
- non-activators of FPR1 and PMNs: FPR1 (FPR1): non-activators of FPR1 and PMNs
- non-activators of FPR1 and PMNs: PMNs [1, 12]: non-activators of FPR1 and PMNs

Molecule: GAEYVNNSYECDIPI
- non-activators of FPR1 and PMNs: FPR1 (FPR1): non-activators of FPR1 and PMNs
- non-activators of FPR1 and PMNs: PMNs [1, 12]: non-activators of FPR1 and PMNs

Molecule: EPEDLPQGFSALEPL
- significant PMN activators (group of the spike peptide pool screening) [1, 12]: significant PMN activators
- Match with activator (region): Receptor (FPR1, FPR2, FPR3, PMN; [11]): PMN

Molecule: GNKPCNGVAGFNCYF
- non-activators of FPR1 and PMNs: FPR1 (FPR1): non-activators of FPR1 and PMNs
- non-activators of FPR1 and PMNs: PMNs [1, 12]: non-activators of FPR1 and PMNs

Molecule: ASYQTQTKSHRRARS
- non-activators of FPR1 and PMNs: FPR1 (FPR1): non-activators of FPR1 and PMNs
- non-activators of FPR1 and PMNs: PMNs [1, 12]: non-activators of FPR1 and PMNs

Molecule: AQALNTLVKQLSSKF
- non-activators of FPR1 and PMNs: FPR1 (FPR1): non-activators of FPR1 and PMNs
- non-activators of FPR1 and PMNs: PMNs [1, 12]: non-activators of FPR1 and PMNs

Molecule: STASALGKLQDVVNH
- non-activators of FPR1 and PMNs: FPR1 (FPR1): non-activators of FPR1 and PMNs
- non-activators of FPR1 and PMNs: PMNs [1, 12]: non-activators of FPR1 and PMNs

Molecule: GDEVRQIAPGQTGNI
- non-activators of FPR1 and PMNs: FPR1 (FPR1): non-activators of FPR1 and PMNs
- non-activators of FPR1 and PMNs: PMNs [1, 12]: non-activators of FPR1 and PMNs

Molecule: EQYIKWPWYVWL (also: fluorescently labeled) [fluorescently labeled SARS-CoV MPR peptide CV3]
- Kd [2]: 7.3 nM
- Kd [3]: 756 nM
- Kd [4]: 337 nM

Molecule: MYVKWPWYVWLL (also: fluorescently labeled) [fluorescently labeled N-terminally truncated HCoV-HKU-1 MPR peptide CV2∗]
- fold lower binding affinity than the other MPR peptides [5]: ~10 fold
- fold lower binding affinity than the other MPR peptides [6]: ~10 fold
- fold lower binding affinity than the other MPR peptides [7]: ~10 fold
- Kd [8]: 66.9 nM
- Kd [9]: > 1000 nM
- Kd [10]: > 1000 nM

Molecule: ETYIKWPWWVWL (also: fluorescently labeled) [fluorescently labeled HCoV-229E MPR peptide CV1]
- Kd [2]: 8.4 nM
- Kd [3]: 366 nM
- Kd [4]: 287 nM
